Patent US9597431B2, “Compositions and methods for promoting bone formation” (Warsaw Orthopedic, Inc., priority 2008, dated 2017)

Key:
[1] = tested on: unilateral transverse femur fractures mice; conditions: osteoclast inhibitors; cited from earlier work
[2] = tested on: three millimeter defects in femurs of athymic rats; test: Critical defect model in rat femurs, new bone formation by MicroCT; format: in vivo; conditions: two micrograms recombinant RANKL mixed with 150 mg Grafton DBM FLEX vs Grafton DBM FLEX alone, three weeks
Experimental: To test whether recombinant RANKL mixed with DBM may aid bone healing, a critical defect model was used in rat femurs. Three millimeter defects were created in femurs of athymic rats. The rats were divided into two groups, the bone defects from one group were implanted with 150 mg of Grafton® DBM FLEX (Osteotech, Eatontown, N.J.), the second group received Grafton® DBM FLEX mixed with two micrograms of recombinant RANKL. At three weeks, the rat femur defects were evaluated by MicroCT. […] Data was analyzed using paired student-t-test.

Molecule | removal of cartilage and remodeling of the fracture callus [1] | new bone formation compared to control group [2]
NCCCC(O)(P(=O)(O)O)P(=O)(O)O [alendronate] | delayed | –
denosumab: osteoclast inhibitor | delayed | –
RANKL: recombinant receptor activator for nuclear factor κ B ligand, mixed with Grafton DBM FLEX demineralized bone matrix implant (protein, UniProt O14788 140-317, looked up) Tumor necrosis factor ligand …: IRAEKAMVDGSWLDLAKRSKLEAQPFAHLTINATDIPSGSHKVSLSSWYHDRGWAKISNMTFSNGKLIVNQDGFYYLYANICFRHHETSGDLATEYLQLMVYVTKTSIKIPSSHTLMKGGSTKYWSGNSEFHFYSINVGGFFKLRSGEEISIEVSNPSLLDPDQDATYFGAFKVRDID | – | significantly (p<0.05) higher
